Literature values, collected in patent US20050287096A1, “Method for improving the appearance of skin” (priority 2004, published 2005).

Tested on: knee abrasions
Settings: ointment containing 5% sucralfate, topical

Q: With sucralfate as the substance, how does the “stopping of fusion from the abrasions” value (knee abrasions caused by falls during a basketball game) read?
A: fusion to be stopped after twenty four hours

Q: What about the “healing of the abrasions” value (period after fusion stopped) of the same substance?
A: good healing occurring over a three day period
